Values joined by “and” are separate entries in the source; they are usually repeats but may differ in a detail not shown here. Equal entries are not always repeated. Toxic doses and inconclusive results are not listed. Cut-off read from the data, not from the text of the source: active = T/C of 150% or more; inactive = T/C below 125%.
System: L1210 leukemia ip in BDF1 mice, survival T/C
Assay: NCI In Vivo Anticancer Drug Screen. Data for tumor model L1210 Leukemia (intraperitoneal) in B6D2F1 (BDF1) mice
Settings: endpoint: mean survival time, higher = longer survival
Method in brief: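 Ratio derived from survival: compound-dosed mice over vehicle-dosed mice, all bearing a transplantable tumor.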

[1] = dose: 100.0 mg/kg/injection, schedule: Q04DX002 (ip), vehicle: Klucel (hydroxypropylcellulose) (HPC)
[2] = dose: 200.0 mg/kg/injection, schedule: Q04DX002 (ip), vehicle: Klucel (hydroxypropylcellulose) (HPC)
[3] = dose: 400.0 mg/kg/injection, schedule: Q04DX002 (ip), vehicle: Klucel (hydroxypropylcellulose) (HPC)
[4] = dose: 100.0 mg/kg/injection, schedule: Q01DX009 (ip), vehicle: saline
[5] = dose: 100.0 mg/kg/injection, schedule: Q04DX003 (ip), vehicle: saline
[6] = dose: 200.0 mg/kg/injection, schedule: Q01DX009 (ip), vehicle: saline
[7] = dose: 200.0 mg/kg/injection, schedule: Q04DX003 (ip), vehicle: saline
[8] = dose: 400.0 mg/kg/injection, schedule: Q04DX003 (ip), vehicle: saline
[9] = dose: 100.0 mg/kg/injection, schedule: Q01DX009 (ip), vehicle: Klucel (hydroxypropylcellulose) (HPC)
[10] = dose: 200.0 mg/kg/injection, schedule: Q01DX009 (ip), vehicle: Klucel (hydroxypropylcellulose) (HPC)
[11] = dose: 400.0 mg/kg/injection, schedule: Q01DX009 (ip), vehicle: Klucel (hydroxypropylcellulose) (HPC)
[12] = dose: 300.0 mg/kg/injection, schedule: Q01DX001 (ip), vehicle: saline
[13] = dose: 100.0 mg/kg/injection, schedule: Q01DX001 (ip), vehicle: saline
[14] = dose: 200.0 mg/kg/injection, schedule: Q01DX001 (ip), vehicle: saline
[15] = dose: 400.0 mg/kg/injection, schedule: Q01DX001 (ip), vehicle: saline
[16] = dose: 100.0 mg/kg/injection, schedule: Q04DX003 (ip), vehicle: Klucel (hydroxypropylcellulose) (HPC)
[17] = dose: 200.0 mg/kg/injection, schedule: Q04DX003 (ip), vehicle: Klucel (hydroxypropylcellulose) (HPC)
[18] = dose: 400.0 mg/kg/injection, schedule: Q04DX003 (ip), vehicle: Klucel (hydroxypropylcellulose) (HPC)
[19] = dose: 100.0 mg/kg/injection, schedule: Q04DX003 (ip), vehicle: saline with Tween-80
[20] = dose: 200.0 mg/kg/injection, schedule: Q04DX003 (ip), vehicle: saline with Tween-80
[21] = dose: 100.0 mg/kg/injection, schedule: Q01DX009 (ip), vehicle: saline with Tween-80
[22] = dose: 200.0 mg/kg/injection, schedule: Q01DX009 (ip), vehicle: saline with Tween-80
[23] = dose: 400.0 mg/kg/injection, schedule: Q01DX009 (ip), vehicle: saline with Tween-80
[24] = dose: 400.0 mg/kg/injection, schedule: Q04DX003 (ip), vehicle: saline with Tween-80

Measured: T/C

CC(CCc1ccccc1)C12CCC(CC1O)C2 (stereo unspecified)
inactive: [1] 96 % of control | [2] 110 % of control | [3] 96 % of control

O=C(O)CSC(CC(=O)O)C(F)(F)C(F)(F)C(F)(F)F (stereo unspecified)
inactive: [4] 100 % of control | [5] 96 % of control | [6] 97 % of control | [7] 98 % of control | dose: 400.0 mg/kg/injection, schedule: Q01DX009 (ip), vehicle: saline 104 % of control | [8] 93 % of control

CC1(C)SC(N=C=Nc2ccccc2)CN1C=O (stereo unspecified)
inactive: dose: 75.0 mg/kg/injection, schedule: Q01DX001 (ip), vehicle: other 96 % of control | dose: 150.0 mg/kg/injection, schedule: Q01DX001 (ip), vehicle: other 86 % of control | dose: 300.0 mg/kg/injection, schedule: Q01DX001 (ip), vehicle: other 93 % of control

C#CC[P+](c1ccccc1)(c1ccccc1)c1ccccc1
inactive: dose: 6.25 mg/kg/injection, schedule: Q01DX001 (ip), vehicle: saline 106 % of control | dose: 12.5 mg/kg/injection, schedule: Q01DX001 (ip), vehicle: saline 109 % of control | dose: 25.0 mg/kg/injection, schedule: Q01DX001 (ip), vehicle: saline 116 % of control and 118 % of control

Nc1ncc(N=O)c(=O)[nH]1
inactive: [1] 96 % of control | [2] 99 % of control | [3] 96 % of control and 101 % of control

O=C(NNC(=O)c1ccc(Br)cc1)c1ccc(Cl)cc1
inactive: dose: 100.0 mg/kg/injection, schedule: Q01DX001 (ip), vehicle: Klucel (hydroxypropylcellulose) (HPC) 100 % of control | [9] 91 % of control | dose: 200.0 mg/kg/injection, schedule: Q01DX001 (ip), vehicle: Klucel (hydroxypropylcellulose) (HPC) 92 % of control | [10] 93 % of control | dose: 400.0 mg/kg/injection, schedule: Q01DX001 (ip), vehicle: Klucel (hydroxypropylcellulose) (HPC) 92 % of control

NN(C(=O)c1ccc([N+](=O)[O-])cc1)C1CCCCC1
inactive: dose: 100.0 mg/kg/injection, schedule: Q04DX003 (ip), vehicle: acetone 96 % of control | dose: 200.0 mg/kg/injection, schedule: Q04DX003 (ip), vehicle: acetone 106 % of control | dose: 400.0 mg/kg/injection, schedule: Q04DX003 (ip), vehicle: acetone 93 % of control

Nc1c(Cl)c(Cl)c2c(c1Cl)C(O)c1cc(Cl)ccc1-2 (stereo unspecified)
inactive: dose: 100.0 mg/kg/injection, schedule: Q01DX001 (ip), vehicle: carboxymethylcellulose (CMC) 89 % of control | dose: 200.0 mg/kg/injection, schedule: Q01DX001 (ip), vehicle: carboxymethylcellulose (CMC) 95 % of control | dose: 400.0 mg/kg/injection, schedule: Q01DX001 (ip), vehicle: carboxymethylcellulose (CMC) 93 % of control

CCOC(=O)c1ccc(=O)n(C(C)C)c1
inactive: [9] 104 % of control | [10] 98 % of control | [11] 102 % of control

Cc1ccc(Cc2c(C=O)nc(N)[nH]c2=O)c2ccccc12
inactive: [1] 90 % of control | [2] 97 % of control

O=C(O)c1cc(Cc2c[nH]c(=O)[nH]c2=O)ccc1O
inactive: dose: 50.0 mg/kg/injection, schedule: Q01DX005 (ip), vehicle: water 109 % of control | dose: 100.0 mg/kg/injection, schedule: Q01DX005 (ip), vehicle: water 98 % of control | dose: 200.0 mg/kg/injection, schedule: Q01DX005 (ip), vehicle: water 102 % of control

N#CC(C#N)=CNc1ccc(S(N)(=O)=O)cc1
inactive: dose: 75.0 mg/kg/injection, schedule: Q01DX001 (ip), vehicle: saline 101 % of control | dose: 150.0 mg/kg/injection, schedule: Q01DX001 (ip), vehicle: saline 95 % of control | [12] 96 % of control

C[n+]1ccccc1
inactive: [13] 94 % of control | [14] 93 % of control | [15] 104 % of control

c1cnc(N2CCCCC2)cn1
inactive: [13] 94 % of control | [14] 96 % of control | [15] 102 % of control

O=C(/C(=N/Nc1ccccc1)c1ccccc1)c1ccccc1
inactive: dose: 25.0 mg/kg/injection, schedule: Q04DX003 (ip), vehicle: Klucel (hydroxypropylcellulose) (HPC) 104 % of control | dose: 50.0 mg/kg/injection, schedule: Q04DX003 (ip), vehicle: Klucel (hydroxypropylcellulose) (HPC) 95 % of control | [9] 108 % of control | [16] 100 % of control and 103 % of control | [10] 104 % of control | [17] 97 % of control | [11] 104 % of control | [18] 95 % of control

CCC(O)(CC)C(C)C
inactive: dose: 90.0 mg/kg/injection, schedule: Q01DX001 (ip), vehicle: saline 97 % of control | [13] 102 % of control | dose: 130.0 mg/kg/injection, schedule: Q01DX001 (ip), vehicle: saline 92 % of control | [12] 96 % of control | [15] 96 % of control

CC(=O)OCC#CCOC(C)=O
inactive: dose: 50.0 mg/kg/injection, schedule: Q04DX003 (ip), vehicle: saline with Tween-80 100 % of control | [19] 97 % of control | [20] 97 % of control

COc1ccccc1N=Nc1c(O)[nH]c2ccccc12
inactive: [13] 96 % of control | [14] 96 % of control | [15] 102 % of control

Nn1cn[nH]c1=S
inactive: [5] 98 % of control | [7] 103 % of control | [8] 98 % of control

Cc1ccc(N=Cc2ccccc2)cc1
inactive: [9] 104 % of control | [16] 95 % of control | [10] 107 % of control | [17] 101 % of control | [11] 104 % of control | [18] 101 % of control

O=C(Nc1cccc(F)c1)Nc1ncccn1
inactive: [21] 90 % of control | [22] 86 % of control | [23] 100 % of control

O=Cc1ccc(C(=O)O)cc1
inactive: [19] 98 % of control | [20] 96 % of control | [24] 95 % of control

COC(=O)/C=C(\C)Nc1ccc(-c2ccccc2)cc1
inactive: dose: 50.0 mg/kg/injection, schedule: Q01DX009 (ip), vehicle: saline 103 % of control | [13] 97 % of control | [4] 102 % of control | [5] 101 % of control | [14] 95 % of control | [6] 100 % of control | [7] 97 % of control | [15] 92 % of control | [8] 97 % of control

CC(=O)Oc1ccc(C2(c3ccc(OC(C)=O)cc3)C(=O)Nc3ccccc32)cc1
inactive: [13] 91 % of control | [9] 103 % of control | [14] 92 % of control | [10] 97 % of control | [15] 87 % of control | [11] 104 % of control

CCOc1ccccc1NC(=O)C(Br)C(Br)C(=O)O (stereo unspecified)
inactive: [21] 96 % of control | [19] 100 % of control | [22] 97 % of control | [20] 95 % of control | [23] 96 % of control | [24] 101 % of control
